Experimental findings from PMC6135981 (iScience, 2018) are described below.

A short description of one series: in vitro. Conditions: human.
The subject of series [1] is 3D intestinal tissue. Conditions: 3D intestine, apical to basal direction.
The target of series [2] is T1, P-gp (Homo sapiens, UniProt P08183). In words: in vitro. Conditions: Efflux ratio (B to A)/(A to B).
The subject of series [3] is prostaglandin E2 secretion. The experiment in a line: Prostaglandin E2 secretion, 3D intestinal tissue. Conditions: all doses, 24-hr treatment. The class given is cell-based, human.
A further series has as its target CYP2C9 (Homo sapiens, UniProt P11712).
The next series concerns the target T2, BCRP (Homo sapiens, UniProt Q9UNQ0).
T2 sequence (Q9UNQ0 1-655): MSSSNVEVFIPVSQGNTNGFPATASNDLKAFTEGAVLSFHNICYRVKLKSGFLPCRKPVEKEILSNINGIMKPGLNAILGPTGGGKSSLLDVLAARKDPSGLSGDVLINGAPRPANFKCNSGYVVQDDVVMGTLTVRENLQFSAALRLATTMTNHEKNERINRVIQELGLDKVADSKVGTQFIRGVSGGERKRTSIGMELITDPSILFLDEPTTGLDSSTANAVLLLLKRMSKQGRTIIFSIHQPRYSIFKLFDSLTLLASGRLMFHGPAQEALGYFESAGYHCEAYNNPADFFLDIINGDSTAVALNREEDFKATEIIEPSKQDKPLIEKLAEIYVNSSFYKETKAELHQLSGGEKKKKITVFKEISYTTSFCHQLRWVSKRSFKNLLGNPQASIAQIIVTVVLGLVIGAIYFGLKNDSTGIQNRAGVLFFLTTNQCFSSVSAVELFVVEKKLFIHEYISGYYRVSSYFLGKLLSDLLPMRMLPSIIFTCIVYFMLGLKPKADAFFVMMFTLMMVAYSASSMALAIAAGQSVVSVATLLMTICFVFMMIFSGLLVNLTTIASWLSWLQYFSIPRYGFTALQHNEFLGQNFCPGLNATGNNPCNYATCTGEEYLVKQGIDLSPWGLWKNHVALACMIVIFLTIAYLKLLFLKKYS
The experiment in a line: in vitro. Conditions: Efflux ratio (B to A)/(A to B), 3D intestinal tissue, dual inhibition with Ko143 and zosuquidar.

For series [4], the target named is T1, P-gp. Conditions: 3D intestinal tissue.
Another series deals with 3D Caco-2 tissues. Conditions: 3D Caco-2 model.
The next series has as its system 2D Caco-2 monolayers. Conditions: 2D Caco-2 model.
Series [5] deals with TNF-α/nuclear factor (NF)-κB pathway. The experiment in a line: Gene expression of TNF-α/NF-κB pathway targets, 3D intestinal tissue. Conditions: TNF-α for 24 hr. The class given is cell-based, human.
The test system of series [6] is 3D intestinal tissue. The experiment in a line: LDH release after toxicant treatment, 3D intestinal tissue. It is filed as cell-based, human. Conditions: TNF-α for 24 hr.
In series [7] the test system is 3D intestinal tissue. The class given is cell-based, human. Conditions: 24-hr treatment.

By Papp is commonly meant a coefficient for how fast a substance crosses the barrier. By efflux ratio is commonly meant a quotient of directional permeabilities that is used to spot active efflux.

T1 sequence (P08183 whole entry): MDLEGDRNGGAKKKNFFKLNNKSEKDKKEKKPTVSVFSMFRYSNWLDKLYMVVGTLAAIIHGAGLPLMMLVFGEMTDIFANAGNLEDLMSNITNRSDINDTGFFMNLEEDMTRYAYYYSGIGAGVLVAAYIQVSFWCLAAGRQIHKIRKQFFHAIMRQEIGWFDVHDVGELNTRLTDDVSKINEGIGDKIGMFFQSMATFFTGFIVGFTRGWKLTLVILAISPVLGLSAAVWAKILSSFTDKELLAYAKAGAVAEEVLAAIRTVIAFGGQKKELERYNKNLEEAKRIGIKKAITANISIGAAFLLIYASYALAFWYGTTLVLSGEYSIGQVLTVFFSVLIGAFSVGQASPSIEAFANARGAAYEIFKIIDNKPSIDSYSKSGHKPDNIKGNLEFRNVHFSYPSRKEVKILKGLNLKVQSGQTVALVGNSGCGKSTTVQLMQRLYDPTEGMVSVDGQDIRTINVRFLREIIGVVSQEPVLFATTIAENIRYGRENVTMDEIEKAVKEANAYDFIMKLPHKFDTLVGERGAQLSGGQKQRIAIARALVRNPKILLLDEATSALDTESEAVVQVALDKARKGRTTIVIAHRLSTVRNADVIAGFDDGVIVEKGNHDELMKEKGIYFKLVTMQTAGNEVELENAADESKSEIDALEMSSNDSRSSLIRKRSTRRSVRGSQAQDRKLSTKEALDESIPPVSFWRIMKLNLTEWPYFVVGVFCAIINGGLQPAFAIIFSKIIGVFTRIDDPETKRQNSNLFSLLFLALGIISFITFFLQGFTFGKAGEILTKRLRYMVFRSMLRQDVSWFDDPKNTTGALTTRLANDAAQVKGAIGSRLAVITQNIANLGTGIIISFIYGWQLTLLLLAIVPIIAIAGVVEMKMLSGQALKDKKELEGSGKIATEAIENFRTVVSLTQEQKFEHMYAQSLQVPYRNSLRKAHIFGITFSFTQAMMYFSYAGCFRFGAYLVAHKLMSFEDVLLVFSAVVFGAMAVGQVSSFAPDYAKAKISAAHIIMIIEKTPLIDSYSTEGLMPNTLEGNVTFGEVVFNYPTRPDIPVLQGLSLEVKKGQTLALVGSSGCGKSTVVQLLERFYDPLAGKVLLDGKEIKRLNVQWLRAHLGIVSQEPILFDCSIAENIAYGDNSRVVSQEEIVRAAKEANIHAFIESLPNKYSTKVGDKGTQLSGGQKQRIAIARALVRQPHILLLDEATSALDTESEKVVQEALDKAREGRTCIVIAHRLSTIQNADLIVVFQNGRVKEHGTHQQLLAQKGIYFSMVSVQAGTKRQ
CYP2C9, sequence (P11712 whole entry): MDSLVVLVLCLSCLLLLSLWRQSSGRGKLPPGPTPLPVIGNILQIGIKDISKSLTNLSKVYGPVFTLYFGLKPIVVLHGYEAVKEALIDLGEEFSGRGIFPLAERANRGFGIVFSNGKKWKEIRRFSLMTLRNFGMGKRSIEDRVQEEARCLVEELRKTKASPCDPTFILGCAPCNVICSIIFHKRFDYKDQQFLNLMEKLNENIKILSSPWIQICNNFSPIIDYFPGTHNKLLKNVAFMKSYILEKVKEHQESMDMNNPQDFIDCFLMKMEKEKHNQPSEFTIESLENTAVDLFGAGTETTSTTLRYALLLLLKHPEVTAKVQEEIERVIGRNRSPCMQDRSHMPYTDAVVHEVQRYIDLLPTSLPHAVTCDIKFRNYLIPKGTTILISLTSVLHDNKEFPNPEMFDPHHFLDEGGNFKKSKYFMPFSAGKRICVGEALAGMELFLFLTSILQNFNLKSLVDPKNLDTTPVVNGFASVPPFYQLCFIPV

For `C[C@H]1O[C@@H](O[C@H]2[C@@H](O)C[C@H](O[C@H]3[C@@H](O)C[C@H](O[C@H]4CC[C@@]5(C)[C@H](CC[C@@H]6[C@@H]5C[C@@H](O)[C@]5(C)[C@@H](C7=CC(=O)OC7)CC[C@]65O)C4)O[C@@H]3C)O[C@@H]2C)C[C@H](O)[C@@H]1O` [digoxin], in the series “in vitro”, the Papp was found to be 8.53 ± 2.02 ×10⁻⁶ cm/s. Further, in the series with 3D intestinal tissue [1], the Permeability class entry is listed as “moderate”. Besides, the efflux ratio on P-gp [2] was over 2.
For the compound `COc1ccc2c(c1)c(CC(=O)O)c(C)n2C(=O)c1ccc(Cl)cc1` [indomethacin], the “Prostaglandin E2 secretion” value in [3] is reported as “inhibition of prostaglandin E2 secretion”.
`CC(=O)N1CCN(c2ccc(OCC3COC(Cn4ccnc4)(c4ccc(Cl)cc4Cl)O3)cc2)CC1` (centres unmarked) [ketoconazole]: the “Effect on CYP3A4 activity (midazolam metabolite formation)” value in the series on CYP3A4 is reported as “specific inhibition”.
`O=C1c2c(O)ccc(O)c2C(=O)c2c(NCCNCCO)ccc(NCCNCCO)c21` [mitoxantrone] registered an apparent permeability coefficient (Papp) in the series “in vitro” of 0.2 ± 0.03 ×10⁻⁶ cm/s.
Turning to `CC(C)NCC(O)COc1cccc2ccccc12` (centres unmarked) [propranolol], the Papp in “in vitro” came to 14.8 ± 1.96 ×10⁻⁶ cm/s. Besides, the Permeability class result in the series with 3D intestinal tissue [1] was “high”.
With `Nc1ccc(S(=O)(=O)Nc2ccnn2-c2ccccc2)cc1` [sulfaphenazole], at CYP2C9, the “Effect on CYP2C9 activity (luminogenic P450 substrate conversion)” value was “significantly inhibited”.
On to `CC[C@@]1(O)C(=O)OCc2c1cc1n(c2=O)Cc2cc3c(CN(C)C)c(O)ccc3nc2-1` [topotecan], for which, in the series “in vitro”, the Papp was 3.1 ± 0.63 ×10⁻⁶ cm/s. In the series on 3D intestinal tissue [1], the Permeability class entry is recorded as “moderate”. For the same compound, the efflux ratio on BCRP is 1.4.
`O[C@@H](COc1cccc2ncccc12)CN1CCN([C@@H]2c3ccccc3[C@@H]3[C@H](c4ccccc42)C3(F)F)CC1` [zosuquidar]: the “Effect on B to A transport of digoxin” value at P-gp [4] is “decreased the rate of B to A transport”.
For the compound lucifer yellow, the Papp was 1.05 ± 0.1 ×10⁻⁶ cm/s in the series with 3D Caco-2 tissues, 0.46 ± 0.25 ×10⁻⁶ cm/s in the series with 2D Caco-2 monolayers and 0.45 ± 1.5 ×10⁻⁶ cm/s with 3D intestinal tissue [1]. In the series on IMF tissue alone, this compound showed a Permeability (Papp) of 163 ± 29 ×10⁻⁶ cm/s.
Take tumor necrosis factor alpha [TNF-α]: the “Gene expression of IL-6, IL-8, CCL2, CXCL10, ICAM1, and TNF-α” value in series [5] is listed as “upregulated”. In addition, the LDH release result with 3D intestinal tissue [6] was “significant increase”. For the same compound, in the series with 3D intestinal tissue [7], the “Epithelial morphology (histology)” value is listed as “altered the epithelial morphology”.
